Experimental data from patent US20230321196A1 (priority 2020, published 2023).
Where two headings read alike, the source gives them in different places. Bridges are numbered along the chain shown (N, C = ends). Where no end group is shown, it is not given here.

What was measured:
[1] = test system: influenzavirus-infected mice; format: in vivo
[2] = test system: influenzavirus-infected mice; format: in vivo; remark: listed apart in the source
[3] = test system: influenzavirus-infected mice; format: in vivo; details: for Score of gross lesion examination of lung: day 5 after inoculation
[4] = test system: influenzavirus-infected mice; format: in vivo; details: mean ± SE
[5] = test system: influenzavirus PR8(A/PR/8/34 (H1N1)); test: Test III: virus concentration in lung; format: in vivo, mice; details: administered groups vs control group
[6] = test system: COVID-19 patients; details: 15 ng/kg body weight/min i.v. continuous 72 hours, then 8 hours per day up to day 10; trial still blinded
[7] = test system: influenzavirus-infected mice; format: in vivo; remark: listed apart in the source
[8] = test system: influenzavirus-infected mice; format: in vivo; remark: listed apart in the source
[9] = test system: influenzavirus-infected mice; format: in vivo; details: for Score of gross lesion examination of lung: day 5 after inoculation; remark: listed apart in the source
[10] = test system: influenzavirus PR8(A/PR/8/34 (H1N1)); test: Test II: virus concentration in lung; format: in vivo, mice; details: for Virus concentration in lung: right lung, day 5 after inoculation, mean ± SE
[11] = test system: influenzavirus-infected mice; format: in vivo; details: left lung, mean ± SE
[12] = 25 nmol/kg i.v., day 1 after inoculation
[13] = 25 nmol/kg i.v., day 2 after inoculation
[14] = 25 nmol/kg i.v., day 3 after inoculation
[15] = 25 nmol/kg i.v., day 4 after inoculation
[16] = 25 nmol/kg i.v., day 5 after inoculation
[17] = 25 nmol/kg tail vein once per day, day 0 after inoculation, mean ± SE
[18] = 250 nmol/kg i.v., day 1 after inoculation
[19] = 250 nmol/kg i.v., day 2 after inoculation
[20] = 250 nmol/kg i.v., day 3 after inoculation
[21] = 250 nmol/kg i.v., day 4 after inoculation
[22] = 250 nmol/kg i.v., day 5 after inoculation
[23] = 250 nmol/kg tail vein once per day, day 0 after inoculation, mean ± SE
[24] = 10 nmol/kg i.v., day 0 after inoculation
[25] = 10 nmol/kg i.v., day 1 after inoculation
[26] = 10 nmol/kg i.v., day 2 after inoculation
[27] = 10 nmol/kg i.v., day 3 after inoculation
[28] = 10 nmol/kg i.v., day 4 after inoculation
[29] = 10 nmol/kg i.v., day 5 after inoculation
[30] = 10 nmol/kg tail vein once per day, 1 day before inoculation, mean ± SE
[31] = 100 nmol/kg i.v., day 0 after inoculation
[32] = 100 nmol/kg i.v., day 1 after inoculation
[33] = 100 nmol/kg i.v., day 2 after inoculation
[34] = 100 nmol/kg i.v., day 3 after inoculation
[35] = 100 nmol/kg i.v., day 4 after inoculation
[36] = 100 nmol/kg i.v., day 5 after inoculation
[37] = 100 nmol/kg tail vein once per day, 1 day before inoculation, mean ± SE
[38] = Test II, administered groups vs control group

**Q.** For “60K PEG-AM: adrenomedullin derivative having a PEG group with a weight-average molecular weight of 60 kDa, prepared according to WO 2017/047788”, which General condition score [1, 12] is on record?
**A.** 0.0 ± 0.0

**Q.** And the General condition score [1, 13]?
**A.** 0.1 ± 0.0

**Q.** What about the General condition score [1, 14] of the same compound?
**A.** 0.5 ± 0.0

**Q.** And the General condition score [1, 15]?
**A.** 0.7 ± 0.1

**Q.** What about the General condition score [1, 16] of the same compound?
**A.** 0.9 ± 0.1

**Q.** What about the General condition score [1, 17] of the same compound?
**A.** 0.0 ± 0.0

**Q.** And the General condition score [1, 18]?
**A.** 0.0 ± 0.0

**Q.** What about the General condition score [1, 19] of the same compound?
**A.** 0.1 ± 0.0

**Q.** And the General condition score [1, 20]?
**A.** 0.5 ± 0.0

**Q.** And the General condition score [1, 21]?
**A.** 0.8 ± 0.0

**Q.** What about the General condition score [1, 22] of the same compound?
**A.** 1.0 ± 0.0

**Q.** And the General condition score [1, 23]?
**A.** 0.0 ± 0.0

**Q.** And the Body weight [2, 12]?
**A.** 16.4 ± 0.4

**Q.** What about the Body weight [2, 13] of the same compound?
**A.** 16.3 ± 0.4

**Q.** And the Body weight [2, 14]?
**A.** 14.5 ± 0.4

**Q.** And the Body weight [2, 15]?
**A.** 13.9 ± 0.5

**Q.** And the Body weight [2, 16]?
**A.** 13.9 ± 0.5

**Q.** What about the Body weight [2, 17] of the same compound?
**A.** 16.4 ± 0.4

**Q.** What about the Body weight [2, 18] of the same compound?
**A.** 16.1 ± 0.4

**Q.** What about the Body weight [2, 19] of the same compound?
**A.** 15.8 ± 0.5

**Q.** What about the Body weight [2, 20] of the same compound?
**A.** 14.3 ± 0.4

**Q.** And the Body weight [2, 21]?
**A.** 13.7 ± 0.3

**Q.** And the Body weight [2, 22]?
**A.** 13.3 ± 0.3

**Q.** And the Body weight [2, 23]?
**A.** 16.4 ± 0.3

**Q.** What about the “Score of gross lesion examination of lung” value ([3]; Left lung, 25 nmol/kg i.v. once per day, mean ± SE) of the same compound?
**A.** 2.0 ± 0.5

**Q.** What about the “Score of gross lesion examination of lung” value ([3]; Left lung, 250 nmol/kg i.v. once per day) of the same compound?
**A.** 2.4 ± 0.2

**Q.** What about the “Score of gross lesion examination of lung” value ([3]; Right lung, 25 nmol/kg i.v. once per day) of the same compound?
**A.** 2.0 ± 0.5

**Q.** What about the “Score of gross lesion examination of lung” value ([3]; Right lung, 250 nmol/kg i.v. once per day) of the same compound?
**A.** 1.9 ± 0.3

**Q.** And the “gross lesion formation in the lung” value ([3]; Test III, administered groups vs control group)?
**A.** significantly suppressed

**Q.** And the “Score of histopathological examination of lung: Pneumonia score” value ([4]; Table 14, 25 nmol/kg i.v. once per day)?
**A.** 8.3 ± 1.5

**Q.** What about the “Score of histopathological examination of lung: Pneumonia score” value ([4]; Table 14, 250 nmol/kg i.v. once per day) of the same compound?
**A.** 9.4 ± 0.6

**Q.** What about the “Score of histopathological examination of lung: Pneumonia score” value ([4]; Table 15, 25 nmol/kg i.v. once per day) of the same compound?
**A.** 8.3 ± 1.5

**Q.** And the “Score of histopathological examination of lung: Pneumonia score” value ([4]; Table 15, 250 nmol/kg i.v. once per day)?
**A.** 9.4 ± 0.6

**Q.** What about the “virus concentration in the lung” value [5] of the same compound?
**A.** significantly decreased

**Q.** For `CC[C@H](C)[C@H](NC(=O)[C@H](CCC(N)=O)NC(=O)[C@H](Cc1c[nH]cn1)NC(=O)[C@H](C)NC(=O)[C@H](CC(C)C)NC(=O)[C@H](CCCCN)NC(=O)[C@H](CCC(N)=O)NC(=O)[C@@H](NC(=O)[C@@H](NC(=O)[C@@H]1CSSC[C@H](NC(=O)CNC(=O)[C@H](Cc2ccccc2)NC(=O)[C@H](CO)NC(=O)[C@H](CCCNC(=N)N)NC(=O)[C@H](CC(C)C)NC(=O)CNC(=O)[C@H](CCC(N)=O)NC(=O)[C@H](Cc2ccccc2)NC(=O)[C@H](CC(N)=O)NC(=O)[C@H](CC(N)=O)NC(=O)[C@H](CCSC)NC(=O)[C@H](CO)NC(=O)[C@H](CCC(N)=O)NC(=O)[C@H](CCCNC(=N)N)NC(=O)[C@@H](N)Cc2ccc(O)cc2)C(=O)N[C@@H](CCCNC(=N)N)C(=O)N[C@@H](Cc2ccccc2)C(=O)NCC(=O)N[C@@H]([C@@H](C)O)C(=O)N1)[C@@H](C)O)C(C)C)C(=O)N[C@@H](Cc1ccc(O)cc1)C(=O)N[C@@H](CCC(N)=O)C(=O)N[C@@H](Cc1ccccc1)C(=O)N[C@H](C(=O)N[C@@H](CC(=O)O)C(=O)N[C@@H](CCCCN)C(=O)N[C@@H](CC(=O)O)C(=O)N[C@@H](CCCCN)C(=O)N[C@@H](CC(=O)O)C(=O)N[C@@H](CC(N)=O)C(=O)N[C@H](C(=O)N[C@@H](C)C(=O)N1CCC[C@H]1C(=O)N[C@@H](CCCNC(=N)N)C(=O)N[C@@H](CO)C(=O)N[C@@H](CCCCN)C(=O)N[C@H](C(=O)N[C@@H](CO)C(=O)N1CCC[C@H]1C(=O)N[C@@H](CCC(N)=O)C(=O)NCC(=O)N[C@@H](Cc1ccc(O)cc1)C(N)=O)[C@@H](C)CC)C(C)C)[C@@H](C)O` [adrenomedullin], which adverse events [6] is on record?
**A.** no adverse event directly caused by AM has been reported

**Q.** For “[Ala-44]hAM(13-52): adrenomedullin analog: peptide of SEQ ID NO: 17, amidated at the C-terminus, disulfide bond formed by two cysteine residues (SFGCRFGTCTVQKLAHQIYQFTDKDKDNVAPASKISPQGY-NH2; disulfide 4-9 (inferred))”, which General condition score [7, 24] is on record?
**A.** 0.0 ± 0.0

**Q.** And the General condition score [7, 25]?
**A.** 0.0 ± 0.0

**Q.** And the General condition score [7, 26]?
**A.** 0.2 ± 0.0

**Q.** And the General condition score [7, 27]?
**A.** 0.5 ± 0.0

**Q.** And the General condition score [7, 28]?
**A.** 0.8 ± 0.0

**Q.** And the General condition score [7, 29]?
**A.** 1.0 ± 0.0

**Q.** And the General condition score [7, 30]?
**A.** 0.0 ± 0.0

**Q.** And the General condition score [7, 31]?
**A.** 0.0 ± 0.0

**Q.** And the General condition score [7, 32]?
**A.** 0.0 ± 0.0

**Q.** And the General condition score [7, 33]?
**A.** 0.1 ± 0.0

**Q.** And the General condition score [7, 34]?
**A.** 0.5 ± 0.0

**Q.** And the General condition score [7, 35]?
**A.** 0.8 ± 0.0

**Q.** And the General condition score [7, 36]?
**A.** 1.0 ± 0.0

**Q.** What about the General condition score [7, 37] of the same compound?
**A.** 0.0 ± 0.0

**Q.** And the Body weight [8, 24]?
**A.** 15.7 ± 0.3

**Q.** What about the Body weight [8, 25] of the same compound?
**A.** 16.1 ± 0.3

**Q.** And the Body weight [8, 26]?
**A.** 15.1 ± 0.3

**Q.** What about the Body weight [8, 27] of the same compound?
**A.** 14.0 ± 0.3

**Q.** And the Body weight [8, 28]?
**A.** 13.2 ± 0.2

**Q.** What about the Body weight [8, 29] of the same compound?
**A.** 12.8 ± 0.2

**Q.** What about the Body weight [8, 30] of the same compound?
**A.** 15.8 ± 0.2

**Q.** What about the Body weight [8, 31] of the same compound?
**A.** 15.8 ± 0.2

**Q.** What about the Body weight [8, 32] of the same compound?
**A.** 16.2 ± 0.3

**Q.** What about the Body weight [8, 33] of the same compound?
**A.** 15.5 ± 0.2

**Q.** And the Body weight [8, 34]?
**A.** 14.6 ± 0.3

**Q.** What about the Body weight [8, 35] of the same compound?
**A.** 13.6 ± 0.2

**Q.** And the Body weight [8, 36]?
**A.** 12.9 ± 0.1

**Q.** And the Body weight [8, 37]?
**A.** 15.8 ± 0.2

**Q.** What about the “Score of gross lesion examination of lung” value ([9]; Left lung, 10 nmol/kg i.v. once per day, mean ± SE) of the same compound?
**A.** 2.8 ± 0.2

**Q.** What about the “Score of gross lesion examination of lung” value ([9]; Left lung, 100 nmol/kg i.v. once per day) of the same compound?
**A.** 2.6 ± 0.2

**Q.** And the “Score of gross lesion examination of lung” value ([9]; Right lung, 10 nmol/kg i.v. once per day)?
**A.** 2.9 ± 0.1

**Q.** And the “Score of gross lesion examination of lung” value ([9]; Right lung, 100 nmol/kg i.v. once per day)?
**A.** 2.5 ± 0.2

**Q.** And the “gross lesion formation in the lung” value [9, 38]?
**A.** significantly suppressed

**Q.** What about the “Virus concentration in lung” value ([10]; 10 nmol/kg i.v. once per day) of the same compound?
**A.** 53.0 ± 3.0 ×10^4 PFU/right lung

**Q.** What about the “Virus concentration in lung” value ([10]; 100 nmol/kg i.v. once per day) of the same compound?
**A.** 43.3 ± 4.6 ×10^4 PFU/right lung

**Q.** What about the “virus concentration in the lung” value [10, 38] of the same compound?
**A.** significantly decreased

**Q.** What about the “Score of histopathological examination of lung: Pneumonia score” value ([11]; 10 nmol/kg i.v. once per day) of the same compound?
**A.** 8.9 ± 0.4

**Q.** And the “Score of histopathological examination of lung: Pneumonia score” value ([11]; 100 nmol/kg i.v. once per day)?
**A.** 9.0 ± 0.5
